# Where “and” joins values, the source holds several entries; their conditions need not be identical. Equal entries are not always repeated. Toxic doses and inconclusive results are not listed. Non-standard residues stand in square brackets, D forms with d. Residues, ends and D or L forms follow the SMILES beside them. ξ: configuration not given here. Ac5c = NC1(C(=O)O)CCCC1; ξS = NC(CO)C(=O)O
# System: BDF1 mice, P388 leukemia ip, median survival T/C
# Assay: NCI In Vivo Anticancer Drug Screen. Data for tumor model P388 Leukemia (intraperitoneal) in B6D2F1 (BDF1) mice
# Settings: endpoint: median survival time, higher = longer survival
# Summary of the method: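 Mice carrying the transplantable tumour receive compound or vehicle. Survival is followed in each arm, and the treated measure is divided by the vehicle measure.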
# [1] = dose: 50.0 mg/kg/injection, schedule: Q01DX009 (ip), vehicle: saline with Tween-80
# [2] = dose: 100.0 mg/kg/injection, schedule: Q01DX009 (ip), vehicle: saline with Tween-80
# [3] = dose: 200.0 mg/kg/injection, schedule: Q01DX009 (ip), vehicle: saline with Tween-80
# [4] = dose: 400.0 mg/kg/injection, schedule: Q01DX009 (ip), vehicle: saline with Tween-80
# [5] = dose: 100.0 mg/kg/injection, schedule: Q04DX003 (ip), vehicle: saline with Tween-80
# [6] = dose: 200.0 mg/kg/injection, schedule: Q04DX003 (ip), vehicle: saline with Tween-80
# [7] = dose: 400.0 mg/kg/injection, schedule: Q04DX003 (ip), vehicle: saline with Tween-80
# [8] = dose: 25.0 mg/kg/injection, schedule: Q01DX009 (ip), vehicle: saline with Tween-80
# [9] = dose: 50.0 mg/kg/injection, schedule: Q01DX009 (ip), vehicle: saline
# [10] = dose: 100.0 mg/kg/injection, schedule: Q01DX009 (ip), vehicle: saline
smiles,measurement,setting,value
Cc1c2ccncc2c(C)c2c1[nH]c1ccccc12,T/C,"dose: 10.0 mg/kg/injection, schedule: Q01DX010 (ip), vehicle: saline",163 % of control
same,T/C,"dose: 14.4 mg/kg/injection, schedule: Q04DX003 (ip), vehicle: clinical formulation",117 % of control
same,T/C,"dose: 15.0 mg/kg/injection, schedule: Q01DX009 (ip), vehicle: water",175 % of control
same,T/C,"dose: 15.0 mg/kg/injection, schedule: Q04DX003 (ip), vehicle: water",166 % of control
same,T/C,"dose: 20.0 mg/kg/injection, schedule: Q01DX010 (ip), vehicle: saline",159 % of control and 179 % of control
same,T/C,"dose: 21.6 mg/kg/injection, schedule: Q04DX003 (ip), vehicle: water",172 % of control and 176 % of control
same,T/C,"dose: 24.0 mg/kg/injection, schedule: Q04DX003 (ip), vehicle: clinical formulation",184 % of control
same,T/C,"dose: 30.0 mg/kg/injection, schedule: Q04DX003 (ip), vehicle: water",208 % of control
same,T/C,"dose: 36.0 mg/kg/injection, schedule: Q04DX003 (ip), vehicle: water",235 % of control and 215 % of control
same,T/C,"dose: 40.0 mg/kg/injection, schedule: Q01DX010 (ip), vehicle: saline",150 % of control
same,T/C,"dose: 40.0 mg/kg/injection, schedule: Q04DX003 (ip), vehicle: clinical formulation",208 % of control
same,T/C,"dose: 100.0 mg/kg/injection, schedule: Q04DX002 (ip), vehicle: Klucel (hydroxypropylcellulose) (HPC)",200 % of control
same,T/C,"dose: 120.0 mg/kg/injection, schedule: Q04DX003 (ip), vehicle: water",100 % of control
same,T/C,"dose: 200.0 mg/kg/injection, schedule: Q04DX002 (ip), vehicle: Klucel (hydroxypropylcellulose) (HPC)",190 % of control
same,T/C,"dose: 400.0 mg/kg/injection, schedule: Q04DX002 (ip), vehicle: Klucel (hydroxypropylcellulose) (HPC)",90 % of control
CCOC(=S)SCc1cc(C(C)(C)C)c(O)c(C(C)(C)C)c1,T/C,"dose: 100.0 mg/kg/injection, schedule: Q04DX002 (ip), vehicle: saline with Tween-80",100 % of control
same,T/C,"dose: 200.0 mg/kg/injection, schedule: Q04DX002 (ip), vehicle: saline with Tween-80",99 % of control
CCN1CC1,T/C,"dose: 3.12 mg/kg/injection, schedule: Q01DX001 (ip), vehicle: Klucel (hydroxypropylcellulose) (HPC)",113 % of control
same,T/C,"dose: 6.25 mg/kg/injection, schedule: Q01DX001 (ip), vehicle: Klucel (hydroxypropylcellulose) (HPC)",118 % of control
same,T/C,"dose: 6.25 mg/kg/injection, schedule: Q01DX009 (ip), vehicle: Klucel (hydroxypropylcellulose) (HPC)",90 % of control
same,T/C,"dose: 12.5 mg/kg/injection, schedule: Q01DX001 (ip), vehicle: Klucel (hydroxypropylcellulose) (HPC)",86 % of control
same,T/C,"dose: 12.5 mg/kg/injection, schedule: Q01DX009 (ip), vehicle: Klucel (hydroxypropylcellulose) (HPC)",86 % of control
Cc1cc(N(CCO)CCO)c2ccc3cc4ccccc4cc3c2n1,T/C,[1],119 % of control
same,T/C,[2],116 % of control
same,T/C,[3],94 % of control
CC12C(C#N)=C(c3ccccc3)C=C(c3ccccc3)C1=C(c1ccccc1)c1ccccc12 (configuration not stated),T/C,"dose: 100.0 mg/kg/injection, schedule: Q04DX003 (ip), vehicle: Klucel (hydroxypropylcellulose) (HPC)",108 % of control
same,T/C,"dose: 200.0 mg/kg/injection, schedule: Q04DX003 (ip), vehicle: Klucel (hydroxypropylcellulose) (HPC)",95 % of control
same,T/C,"dose: 400.0 mg/kg/injection, schedule: Q04DX003 (ip), vehicle: Klucel (hydroxypropylcellulose) (HPC)",91 % of control
NC(CO)C(=O)NC1(C(=O)O)CCCC1 (configuration not stated) (H-[ξS]-[Ac5c]-OH),T/C,[2],109 % of control
same,T/C,[3],118 % of control
same,T/C,[4],95 % of control
COc1ccc(-c2c(C)c(C)[nH]c(=O)c2C(=O)O)c(OCc2ccccc2)c1OC,T/C,[2],99 % of control
same,T/C,[5],110 % of control
same,T/C,[3],105 % of control
same,T/C,[6],103 % of control
same,T/C,[4],103 % of control
same,T/C,[7],117 % of control
CCCCCC#CC(=O)O,T/C,[1],99 % of control
same,T/C,[2],100 % of control
same,T/C,[3],90 % of control
Cc1cc(C)c(C)[nH]1,T/C,"dose: 3.12 mg/kg/injection, schedule: Q01DX009 (ip), vehicle: water",87 % of control
same,T/C,"dose: 6.25 mg/kg/injection, schedule: Q01DX009 (ip), vehicle: water",111 % of control
same,T/C,"dose: 12.5 mg/kg/injection, schedule: Q01DX009 (ip), vehicle: water",105 % of control
same,T/C,"dose: 12.5 mg/kg/injection, schedule: Q04DX003 (ip), vehicle: water",91 % of control
same,T/C,"dose: 25.0 mg/kg/injection, schedule: Q01DX009 (ip), vehicle: water",103 % of control
same,T/C,"dose: 25.0 mg/kg/injection, schedule: Q04DX003 (ip), vehicle: water",114 % of control
same,T/C,"dose: 50.0 mg/kg/injection, schedule: Q01DX009 (ip), vehicle: water",97 % of control
same,T/C,"dose: 50.0 mg/kg/injection, schedule: Q04DX003 (ip), vehicle: water",107 % of control
CCOC(=O)CCSCC(C)(C)C(=O)OCC,T/C,"dose: 100.0 mg/kg/injection, schedule: Q04DX003 (ip), vehicle: saline",90 % of control
same,T/C,"dose: 200.0 mg/kg/injection, schedule: Q04DX003 (ip), vehicle: saline",100 % of control
same,T/C,"dose: 400.0 mg/kg/injection, schedule: Q04DX003 (ip), vehicle: saline",95 % of control
COc1ccc(C(CCl)(CCl)c2ccc(OC)cc2)cc1,T/C,"dose: 100.0 mg/kg/injection, schedule: Q01DX009 (ip), vehicle: gum acacia",116 % of control
same,T/C,"dose: 100.0 mg/kg/injection, schedule: Q04DX003 (ip), vehicle: gum acacia",87 % of control
same,T/C,"dose: 200.0 mg/kg/injection, schedule: Q01DX009 (ip), vehicle: gum acacia",112 % of control
same,T/C,"dose: 200.0 mg/kg/injection, schedule: Q04DX003 (ip), vehicle: gum acacia",104 % of control
same,T/C,"dose: 400.0 mg/kg/injection, schedule: Q01DX009 (ip), vehicle: gum acacia",104 % of control
same,T/C,"dose: 400.0 mg/kg/injection, schedule: Q04DX003 (ip), vehicle: gum acacia",95 % of control
O=C(O)CCC(=O)CCl,T/C,"dose: 12.0 mg/kg/injection, schedule: Q01DX009 (ip), vehicle: saline",120 % of control
CCC(=O)NC(C(=O)NC(C(=O)NC(CC(C)C)C(O)CC(=O)NC(C)C(=O)NC(CC(C)C)C(O)CC(=O)O)C(C)C)C(C)C (configuration not stated),T/C,"dose: 12.5 mg/kg/injection, schedule: Q01DX009 (ip), vehicle: saline with Tween-80",100 % of control
same,T/C,[8],109 % of control
same,T/C,[1],109 % of control and 114 % of control
same,T/C,[2],94 % of control
C1CC[N+]2(CC1)CCC2,T/C,"dose: 25.0 mg/kg/injection, schedule: Q01DX009 (ip), vehicle: saline",113 % of control
same,T/C,[9],109 % of control
same,T/C,[10],100 % of control
CCOC(=O)/C(=C/C(C#N)=C/N(C)C)CC,T/C,"dose: 100.0 mg/kg/injection, schedule: Q01DX001 (ip), vehicle: other",100 % of control
same,T/C,"dose: 200.0 mg/kg/injection, schedule: Q01DX001 (ip), vehicle: other",109 % of control
same,T/C,"dose: 400.0 mg/kg/injection, schedule: Q01DX001 (ip), vehicle: other",109 % of control
CS(=O)(=O)c1nnc(-c2ccccc2)s1,T/C,"dose: 100.0 mg/kg/injection, schedule: Q01DX009 (ip), vehicle: Klucel (hydroxypropylcellulose) (HPC)",94 % of control
same,T/C,"dose: 200.0 mg/kg/injection, schedule: Q01DX009 (ip), vehicle: Klucel (hydroxypropylcellulose) (HPC)",100 % of control
same,T/C,"dose: 400.0 mg/kg/injection, schedule: Q01DX009 (ip), vehicle: Klucel (hydroxypropylcellulose) (HPC)",103 % of control
CC(C)NC(=O)C12CC3CC(CC(C3)C1)C2,T/C,[1],92 % of control
same,T/C,[2],87 % of control
same,T/C,[3],100 % of control
C[Si](C)(OC(=O)N(CCCl)CCCl)O[Si](C)(C)OC(=O)N(CCCl)CCCl,T/C,"dose: 6.25 mg/kg/injection, schedule: Q01DX009 (ip), vehicle: saline with Tween-80",110 % of control
same,T/C,[8],185 % of control
same,T/C,[1],208 % of control
COC(OC)c1[nH]c(=S)[nH]c(=O)c1Cc1c(Cl)cccc1Cl,T/C,[5],104 % of control
same,T/C,[6],104 % of control
same,T/C,[7],100 % of control
Cc1sc(N)c(C#N)c1C,T/C,"dose: 50.0 mg/kg/injection, schedule: Q04DX003 (ip), vehicle: saline with Tween-80",100 % of control
same,T/C,[5],120 % of control
same,T/C,[6],100 % of control
CCCCC(CC)COP(OCC(CC)CCCC)OCC(CC)CCCC (configuration not stated),T/C,[5],109 % of control
same,T/C,[6],100 % of control
same,T/C,[7],118 % of control
CN(C)NCCC#N,T/C,[9],100 % of control
same,T/C,"dose: 66.0 mg/kg/injection, schedule: Q01DX009 (ip), vehicle: saline",111 % of control
same,T/C,"dose: 75.0 mg/kg/injection, schedule: Q01DX009 (ip), vehicle: saline",117 % of control
same,T/C,[10],100 % of control and 111 % of control
same,T/C,"dose: 150.0 mg/kg/injection, schedule: Q01DX009 (ip), vehicle: saline",118 % of control
same,T/C,"dose: 200.0 mg/kg/injection, schedule: Q01DX009 (ip), vehicle: saline",86 % of control

# Reference: PubChem BioAssay AID328 (DTP/NCI, 2004)
